Measurements published in PubChem BioAssay AID266 (DTP/NCI, 2004).
Values joined by “and” are separate entries in the source; they are usually repeats but may differ in a detail not shown here. Identical values can stand only once. Results filed as inconclusive are left out.

System: Nude mice, LX-1 lung xenograft intrarenal, tumor weight T/C
Experiment: NCI In Vivo Anticancer Drug Screen. Data for tumor model Human Lung LX-1 Xenograft (intrarenal inoculation) in NU/NU BALB/C (nude) mice
Settings: endpoint: mean tumor weight change, higher = larger tumour
Description: The antitumor activity of compounds was measured in mice bearing transplantable tumors. Survival or tumor size were measured and the results are expressed as the measurement made in the treated group (T) divided by the measurement made in the vehicle treated control group (C). The tumor model used in this assay is Human Lung LX-1 Xenograft (intrarenal inoculation) in NU/NU BALB/C (nude) mice

[1] = dose: 100.0 mg/kg/injection, schedule: Q04DX003 (sc), vehicle: Klucel (hydroxypropylcellulose) (HPC)
[2] = dose: 300.0 mg/kg/injection, schedule: Q04DX003 (sc), vehicle: saline
[3] = dose: 600.0 mg/kg/injection, schedule: Q04DX003 (sc), vehicle: saline
[4] = dose: 1200.0 mg/kg/injection, schedule: Q04DX003 (sc), vehicle: saline
[5] = dose: 50.0 mg/kg/injection, schedule: Q01DX010 (sc), vehicle: Klucel (hydroxypropylcellulose) (HPC)
[6] = dose: 18.75 mg/kg/injection, schedule: Q04DX003 (sc), vehicle: Klucel (hydroxypropylcellulose) (HPC)
[7] = dose: 37.5 mg/kg/injection, schedule: Q04DX003 (sc), vehicle: Klucel (hydroxypropylcellulose) (HPC)
[8] = dose: 50.0 mg/kg/injection, schedule: Q01DX010 (sc), vehicle: saline
[9] = dose: 200.0 mg/kg/injection, schedule: Q01DX010 (sc), vehicle: saline
[10] = dose: 400.0 mg/kg/injection, schedule: Q01DX010 (sc), vehicle: saline
[11] = dose: 37.5 mg/kg/injection, schedule: Q04DX003 (sc), vehicle: saline with Tween-80
[12] = dose: 75.0 mg/kg/injection, schedule: Q04DX003 (sc), vehicle: saline with Tween-80

Q: `CC[C@@]1(O)C(=O)OCc2c1cc1n(c2=O)Cc2cc3ccccc3nc2-1` was tested. Which T/C (dose: 5.0 mg/kg/injection, schedule: Q04DX003 (sc), vehicle: saline with Tween-80) did it give?
A: 15 % of control

Q: What about the T/C (dose: 10.0 mg/kg/injection, schedule: Q04DX003 (sc), vehicle: saline with Tween-80) of the same compound?
A: 5 % of control and 12 % of control

Q: What about the T/C (dose: 20.0 mg/kg/injection, schedule: Q04DX003 (sc), vehicle: saline with Tween-80) of the same compound?
A: 3 % of control and 4 % of control

Q: What does the source list for `O=C1NC(=O)NC(C(=O)O)N1`?
A: T/C [1]: 87 % of control; T/C (dose: 200.0 mg/kg/injection, schedule: Q04DX003 (sc), vehicle: Klucel (hydroxypropylcellulose) (HPC)): 98 % of control; T/C (dose: 400.0 mg/kg/injection, schedule: Q04DX003 (sc), vehicle: Klucel (hydroxypropylcellulose) (HPC)): 106 % of control

Q: How did the T/C [2] turn out when `O=C(O)CP(=O)(O)O` was run?
A: 105 % of control

Q: What about the T/C [3] of the same compound?
A: 156 % of control

Q: And the T/C [4]?
A: 106 % of control

Q: `CC1=C2CC(C)(C)/C=C\C(=O)/C(C)=C\C3=C[C@H](C)C[C@]3(O2)C1=O` was tested. Which T/C (dose: 6.0 mg/kg/injection, schedule: Q01DX010 (sc), vehicle: Klucel (hydroxypropylcellulose) (HPC)) did it give?
A: 81 % of control

Q: And the T/C (dose: 12.0 mg/kg/injection, schedule: Q01DX010 (sc), vehicle: Klucel (hydroxypropylcellulose) (HPC))?
A: 168 % of control

Q: What about the T/C (dose: 24.0 mg/kg/injection, schedule: Q01DX010 (sc), vehicle: Klucel (hydroxypropylcellulose) (HPC)) of the same compound?
A: 236 % of control

Q: What about the T/C [5] of the same compound?
A: 33 % of control

Q: Which results are given for `CO[C@H](/C(C)=C/C=C/C(C)=C/c1coc(C)n1)[C@H](C)[C@H]1C[C@@H](O)[C@@]2(C)O[C@H]2/C=C/[C@@H](C)[C@@H]2C[C@@H](CC(=O)O2)C[C@H]2O[C@@H]2C(=O)O1`?
A: T/C (dose: 0.13 mg/kg/injection, schedule: Q04DX003 (sc), vehicle: Klucel (hydroxypropylcellulose) (HPC)): 105 % of control; T/C (dose: 0.25 mg/kg/injection, schedule: Q04DX003 (sc), vehicle: Klucel (hydroxypropylcellulose) (HPC)): 95 % of control

Q: What does the source list for `NNC(=S)N/N=C/c1ccccn1`?
A: T/C (dose: 15.0 mg/kg/injection, schedule: Q04DX003 (sc), vehicle: saline with Tween-80): 78 % of control; T/C (dose: 30.0 mg/kg/injection, schedule: Q04DX003 (sc), vehicle: saline with Tween-80): 95 % of control; T/C (dose: 60.0 mg/kg/injection, schedule: Q04DX003 (sc), vehicle: saline with Tween-80): 94 % of control

Q: For `N[C@@H](Cc1ccc(N(CCCl)CCCl)cc1)C(=O)O`, which T/C (dose: 1.0 mg/kg/injection, schedule: Q01DX010 (sc), vehicle: saline) is on record?
A: 94 % of control

Q: And the T/C (dose: 2.0 mg/kg/injection, schedule: Q01DX010 (sc), vehicle: saline)?
A: 47 % of control

Q: And the T/C (dose: 4.0 mg/kg/injection, schedule: Q01DX010 (sc), vehicle: saline)?
A: 13 % of control

Q: What about the T/C (dose: 8.0 mg/kg/injection, schedule: Q01DX010 (sc), vehicle: saline) of the same compound?
A: -19 % of control

Q: Which T/C (dose: 9.38 mg/kg/injection, schedule: Q04DX003 (sc), vehicle: Klucel (hydroxypropylcellulose) (HPC)) does the source give for `CCS/C(SC)=C(/c1ccccc1)[P+](c1ccccc1)(c1ccccc1)c1ccccc1` here?
A: 79 % of control

Q: And the T/C [6]?
A: 76 % of control

Q: And the T/C [7]?
A: 110 % of control

Q: Which T/C (dose: 12.5 mg/kg/injection, schedule: Q04DX003 (sc), vehicle: Klucel (hydroxypropylcellulose) (HPC)) does the source give for `O=NN(CCCl)C(=O)NC1CCCCC1` here?
A: 47 % of control

Q: And the T/C (dose: 25.0 mg/kg/injection, schedule: Q04DX003 (sc), vehicle: Klucel (hydroxypropylcellulose) (HPC))?
A: 29 % of control

Q: What about the T/C (dose: 26.66 mg/kg/injection, schedule: Q04DX003 (sc), vehicle: saline with Tween-80) of the same compound?
A: 4 % of control

Q: And the T/C (dose: 50.0 mg/kg/injection, schedule: Q04DX003 (sc), vehicle: Klucel (hydroxypropylcellulose) (HPC))?
A: -25 % of control

Q: What about the T/C (dose: 53.33 mg/kg/injection, schedule: Q04DX003 (sc), vehicle: saline with Tween-80) of the same compound?
A: -73 % of control

Q: And the T/C [1]?
A: 4 % of control

Q: For `CCC1=C[C@H]2CN(CCc3c([nH]c4ccccc34)[C@@](C(=O)OC)(c3cc4c(cc3OC)N(C)[C@H]3[C@@](O)(C(=O)NC)[C@H](OC(C)=O)[C@]5(CC)C=CCN6CC[C@]43[C@@H]65)C2)C1`, which T/C (dose: 1.0 mg/kg/injection, schedule: Q04DX003 (sc), vehicle: water) is on record?
A: 30 % of control

Q: What does the source list for `Cc1ccc(S(=O)(=O)NC(=S)S)cc1`?
A: T/C (dose: 100.0 mg/kg/injection, schedule: Q01DX010 (sc), vehicle: saline with Tween-80): 203 % of control; T/C (dose: 200.0 mg/kg/injection, schedule: Q01DX010 (sc), vehicle: saline with Tween-80): 111 % of control; T/C (dose: 400.0 mg/kg/injection, schedule: Q01DX010 (sc), vehicle: saline with Tween-80): 196 % of control

Q: `O=C(CCBr)N1CCN(C(=O)CCBr)CC1` was tested. Which T/C [5] did it give?
A: 48 % of control

Q: With `CNc1nc(NC)nc(NC)n1` as the compound, how does the T/C (dose: 25.0 mg/kg/injection, schedule: Q01DX010 (sc), vehicle: Klucel (hydroxypropylcellulose) (HPC)) read?
A: 85 % of control

Q: And the T/C (dose: 100.0 mg/kg/injection, schedule: Q01DX010 (sc), vehicle: Klucel (hydroxypropylcellulose) (HPC))?
A: 107 % of control

Q: `C1CN2CN3CCN(CN1C3)C2` was tested. Which T/C [8] did it give?
A: 68 % of control

Q: And the T/C [9]?
A: 48 % of control

Q: And the T/C [10]?
A: 23 % of control

Q: With `C=COC(=O)C(Cc1ccccc1)NC(=O)OCc1ccccc1` (stereo not given) as the compound, how does the T/C (dose: 300.0 mg/kg/injection, schedule: Q04DX003 (sc), vehicle: saline with Tween-80) read?
A: 114 % of control

Q: And the T/C (dose: 600.0 mg/kg/injection, schedule: Q04DX003 (sc), vehicle: saline with Tween-80)?
A: 118 % of control

Q: And the T/C (dose: 1200.0 mg/kg/injection, schedule: Q04DX003 (sc), vehicle: saline with Tween-80)?
A: 104 % of control

Q: Which T/C [8] does the source give for `CCOC(=O)c1c[nH]c2oc(/C=N/N3CC(CN4CCOCC4)OC3=O)cc2c1=O` (stereo not given) here?
A: 81 % of control

Q: What about the T/C [9] of the same compound?
A: 118 % of control

Q: What does the source list for `NC(=O)NO`?
A: T/C [9]: 60 % of control; T/C [10]: 105 % of control

Q: With `COC(=O)CC(N)C(=O)O` (stereo not given) as the compound, how does the T/C [2] read?
A: 84 % of control

Q: What about the T/C [3] of the same compound?
A: 80 % of control

Q: And the T/C [4]?
A: 55 % of control

Q: What about the T/C (dose: 2400.0 mg/kg/injection, schedule: Q04DX003 (sc), vehicle: saline) of the same compound?
A: 54 % of control

Q: How did the T/C (dose: 200.0 mg/kg/injection, schedule: Q04DX003 (sc), vehicle: distilled water + Tween-80) turn out when `CC(=O)Oc1c[nH]c(=O)[nH]c1=O` was run?
A: 98 % of control

Q: And the T/C (dose: 400.0 mg/kg/injection, schedule: Q04DX003 (sc), vehicle: distilled water + Tween-80)?
A: 76 % of control

Q: And the T/C (dose: 800.0 mg/kg/injection, schedule: Q04DX003 (sc), vehicle: distilled water + Tween-80)?
A: 104 % of control

Q: Which results are given for `COc1c(C=O)c2c(c(OC)c1OC)-c1ccc(OC)c(=O)cc1[C@@H](NC(C)=O)CC2`?
A: T/C [6]: 83 % of control; T/C [7]: 59 % of control; T/C (dose: 75.0 mg/kg/injection, schedule: Q04DX003 (sc), vehicle: Klucel (hydroxypropylcellulose) (HPC)): 32 % of control

Q: How did the T/C [11] turn out when `O=S(=O)(N=N/C=C1\C=CC=CN1O)c1cccs1` was run?
A: 121 % of control

Q: What about the T/C [12] of the same compound?
A: 82 % of control

Q: What about the T/C (dose: 150.0 mg/kg/injection, schedule: Q04DX003 (sc), vehicle: saline with Tween-80) of the same compound?
A: 103 % of control

Q: How did the T/C (dose: 50.0 mg/kg/injection, schedule: Q04DX003 (ip), vehicle: saline) turn out when `CN(C)N=Nc1ccc(C(=O)O)cc1` was run?
A: 2 % of control and 4 % of control

Q: And the T/C (dose: 400.0 mg/kg/injection, schedule: Q04DX003 (ip), vehicle: saline)?
A: -62 % of control and -40 % of control

Q: Which T/C (dose: 18.75 mg/kg/injection, schedule: Q04DX003 (sc), vehicle: saline with Tween-80) does the source give for `CCC1CCCCN1C(=S)N/N=C(\C)c1ccccn1` (stereo not given) here?
A: 100 % of control

Q: What about the T/C [11] of the same compound?
A: 83 % of control

Q: What about the T/C [12] of the same compound?
A: 81 % of control

Q: How did the T/C (dose: 20.0 mg/kg/injection, schedule: Q04DX003 (sc), vehicle: Klucel (hydroxypropylcellulose) (HPC)) turn out when `CC1CN1C(=O)NCCCCCCNC(=O)N1CC1C` (stereo not given) was run?
A: 68 % of control

Q: `Cn1cnc([N+](=O)[O-])c1[Se]c1nc(N)nc2nc[nH]c12` was tested. Which T/C (dose: 50.0 mg/kg/injection, schedule: Q01DX010 (sc), vehicle: water) did it give?
A: 64 % of control

Q: And the T/C (dose: 100.0 mg/kg/injection, schedule: Q01DX010 (sc), vehicle: water)?
A: 69 % of control

Q: How did the T/C (dose: 150.0 mg/kg/injection, schedule: Q04DX003 (sc), vehicle: Klucel (hydroxypropylcellulose) (HPC)) turn out when `COc1ccc2c(ccc3oc([N+](=O)[O-])cc32)c1` was run?
A: 88 % of control

Q: What about the T/C (dose: 300.0 mg/kg/injection, schedule: Q04DX003 (sc), vehicle: Klucel (hydroxypropylcellulose) (HPC)) of the same compound?
A: 96 % of control

Q: What about the T/C (dose: 600.0 mg/kg/injection, schedule: Q04DX003 (sc), vehicle: Klucel (hydroxypropylcellulose) (HPC)) of the same compound?
A: 86 % of control

Q: `Cc1cnc(/C=N\NC(N)=S)c2cccc(N)c12` was tested. Which T/C (dose: 31.75 mg/kg/injection, schedule: Q04DX003 (ip), vehicle: saline with Tween-80) did it give?
A: 74 % of control

Q: What about the T/C (dose: 62.5 mg/kg/injection, schedule: Q04DX003 (ip), vehicle: saline with Tween-80) of the same compound?
A: 89 % of control

Q: What about the T/C (dose: 125.0 mg/kg/injection, schedule: Q04DX003 (ip), vehicle: saline with Tween-80) of the same compound?
A: 49 % of control
